Measured values published in ChEMBL document CHEMBL4251562, “Discovery of new potent molecular entities able to inhibit mPGES-1” (Eur J Med Chem, 2018).
The source made the active and inactive calls. The calls are words filed in the database; no cut-off is given here.

How the values were obtained:
[1] = molecular target: T1, Prostaglandin E synthase (Homo sapiens) (UniProt O14684); assay: Inhibition of mPGES1 in IL-1beta-stimulated human A549 cell microsomes assessed as remaining activity at 10 uM using PGH2 as substrate by measuring reduction in PGE2 production preincubated for 15 mins followed by substrate addition and measured after 1 min by RP-HPLC analysis
T1 sequence (whole entry): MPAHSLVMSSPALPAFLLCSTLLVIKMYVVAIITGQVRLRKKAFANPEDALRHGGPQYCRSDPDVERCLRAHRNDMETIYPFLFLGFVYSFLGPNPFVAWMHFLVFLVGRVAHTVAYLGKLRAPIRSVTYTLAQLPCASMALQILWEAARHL

[2] = molecular target: T2, Prostaglandin E synthase (Homo sapiens, UniProt O14684); assay: Inhibition of mPGES1 in IL-1beta-stimulated human A549 cell microsomes using PGH2 as substrate assessed as reduction in PGE2 production preincubated for 15 mins followed by substrate addition and measured after 1 min by RP-HPLC analysis
T2 sequence (O14684 whole entry): T1 sequence (whole entry)

[3] = molecular target: T3, Prostaglandin G/H synthase 1 (Ovis aries) (UniProt P05979); assay: Inhibition of ovine COX1 at 10 uM using arachidonic acid as substrate preincubated for 5 mins followed by substrate addition and measured after 5 mins by UPLC-MS/MS analysis
T3 sequence (whole entry): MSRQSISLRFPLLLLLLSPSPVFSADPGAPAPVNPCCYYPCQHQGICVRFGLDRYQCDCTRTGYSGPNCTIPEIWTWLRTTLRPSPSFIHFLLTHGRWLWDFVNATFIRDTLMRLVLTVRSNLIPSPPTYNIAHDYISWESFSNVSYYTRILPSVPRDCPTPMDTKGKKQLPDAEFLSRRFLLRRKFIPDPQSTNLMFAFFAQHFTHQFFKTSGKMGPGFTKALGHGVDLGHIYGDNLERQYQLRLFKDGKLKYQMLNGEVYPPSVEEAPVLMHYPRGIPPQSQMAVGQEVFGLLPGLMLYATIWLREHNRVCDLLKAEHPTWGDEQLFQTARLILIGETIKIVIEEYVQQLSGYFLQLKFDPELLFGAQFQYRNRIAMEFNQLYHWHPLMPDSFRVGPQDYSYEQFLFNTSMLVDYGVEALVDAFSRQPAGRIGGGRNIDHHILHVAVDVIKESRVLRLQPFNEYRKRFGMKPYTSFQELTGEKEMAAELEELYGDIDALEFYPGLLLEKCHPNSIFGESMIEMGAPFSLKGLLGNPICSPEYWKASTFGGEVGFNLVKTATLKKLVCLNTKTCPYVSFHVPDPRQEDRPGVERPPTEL

[4] = molecular target: T4, Prostaglandin G/H synthase 2 (Homo sapiens) (UniProt P35354); assay: Inhibition of recombinant human COX2 at 10 uM using arachidonic acid as substrate preincubated for 5 mins followed by substrate addition and measured after 5 mins by UPLC-MS/MS analysis
T4 sequence (whole entry): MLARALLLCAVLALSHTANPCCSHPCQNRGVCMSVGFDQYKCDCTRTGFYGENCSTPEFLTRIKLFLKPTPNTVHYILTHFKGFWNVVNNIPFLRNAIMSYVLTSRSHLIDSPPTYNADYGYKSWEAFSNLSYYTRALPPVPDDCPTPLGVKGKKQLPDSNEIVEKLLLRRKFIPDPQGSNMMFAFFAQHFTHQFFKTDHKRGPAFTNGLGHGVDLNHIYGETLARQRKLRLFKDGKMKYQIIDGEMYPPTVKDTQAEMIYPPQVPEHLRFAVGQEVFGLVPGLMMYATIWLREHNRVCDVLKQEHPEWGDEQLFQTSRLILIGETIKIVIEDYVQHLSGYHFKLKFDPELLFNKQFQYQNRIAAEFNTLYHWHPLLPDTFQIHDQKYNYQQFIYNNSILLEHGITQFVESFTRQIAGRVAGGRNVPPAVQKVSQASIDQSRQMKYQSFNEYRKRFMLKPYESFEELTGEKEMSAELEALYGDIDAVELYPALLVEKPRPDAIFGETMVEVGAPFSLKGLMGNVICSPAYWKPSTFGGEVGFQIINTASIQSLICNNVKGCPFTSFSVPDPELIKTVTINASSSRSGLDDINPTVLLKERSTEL

[5] = molecular target: T5, Prostaglandin G/H synthase 1 (Ovis aries, UniProt P05979); assay: Inhibition of ovine COX1 using arachidonic acid as substrate preincubated for 5 mins followed by substrate addition and measured after 5 mins by UPLC-MS/MS analysis
T5 sequence (P05979 whole entry): T3 sequence (whole entry)

Row | SMILES | Activity [1] | IC50 [2] | inhibition [3] | inhibition [4] | IC50 [5]
1 | COCCc1ccc(OCc2ccc(-c3cc(F)c([N+](=O)[O-])cc3[N+](=O)[O-])cc2)cc1 | 11.8% | 1640 nM | inactive | inactive | 
2 | O=[N+]([O-])c1cc(C(F)(F)F)ccc1-c1ccc(COc2cccc3ccccc23)cc1 | inactive | > 10000 nM |  |  | 
3 | O=[N+]([O-])c1cc([N+](=O)[O-])c(-c2ccc(COc3cccc(C(F)(F)F)c3)cc2)cc1F | 12.1% | 260 nM | inactive | inactive | 
4 | O=[N+]([O-])c1cc(C(F)(F)F)ccc1-c1ccccc1COc1cccc(C(F)(F)F)c1 | inactive | > 10000 nM |  |  | 
5 | O=[N+]([O-])c1cc([N+](=O)[O-])c(-c2ccc(COc3ccccc3)cc2)cc1F | 9.5% | 600 nM | inactive | inactive | 
6 | O=[N+]([O-])c1cc(C(F)(F)F)ccc1-c1ccc(COc2ccccc2)cc1 | inactive | > 10000 nM |  |  | 
7 | O=[N+]([O-])c1cc([N+](=O)[O-])c(-c2ccccc2COc2cccc(C(F)(F)F)c2)cc1F | 7% | 540 nM | Active | inactive | 3000 nM
8 | O=[N+]([O-])c1cc(C(F)(F)F)ccc1-c1ccc(COc2cccc(C(F)(F)F)c2)cc1 | inactive | > 10000 nM |  |  | 
9 | COCCc1ccc(OCc2ccc(-c3ccc(C(F)(F)F)cc3[N+](=O)[O-])cc2)cc1 | inactive | > 10000 nM |  |  | 
10 | O=[N+]([O-])c1cc([N+](=O)[O-])c(-c2ccc(COc3cccc4ccccc34)cc2)cc1F | 9.1% | 180 nM | inactive | inactive | 
